{"source": "paper PMC6156508", "about": "“GA-Hecate antiviral properties on HCV whole cycle represent a new antiviral class and open the door for the development of broad spectrum antivirals” (Scientific Reports, 2018)", "key": {"[1]": {"tested_on": "Huh-7.5 cells harboring SGR-JFH-1 Feo", "test": "MTT cytotoxicity in hepatocytes", "assay_type": "cell-based, human", "conditions": "for CC50 (50% cytotoxic concentration): 48 h incubation, SGR-Feo-JFH-1 Huh-7.5 cells, triplicate in three independent assays; for maximum non-toxic (safe) concentration in hepatocytes: arbitrary threshold of 80% cell viability, 48 h", "description": "(§1) Figure 2 Hecate and its derivative-peptide effects on subgenomic HCV genotype 2a replication and hepatotoxicity. (A) Hecate. (B) Lys- Hecate. (C) GA-Hecate. (D) GA2-Hecate. (E) Acetyl-Hecate. (F) Glu-Hecate. Luciferase assays report HCV replication and MTT assays report the viability of Huh-7.5 cells harboring SGR-JFH-1 Feo under peptide treatment. Water was used as a negative control of virus replication inhibition and cell death (Control (−)), and Cyclosporine A was used as a positive control for virus replication inhibition (Control (+)). Red dotted lines represent the arbitrary threshold of 80% cell viability, and blue dotted lines represent the maximum inhibition presented by Hecate at the maximum safe concentration. Bars represent triplicates of the three independent assays. ***P < 0.01 vs control (−).\nPeptide cytotoxicity profiles were measured by the MTT [3-(4,5-dimethylthiazol- 2-yl)-2,5-diphenyl tetrazolium bromide] (Sigma–Aldrich) method. Twenty-four hours before treatment, 5 × 10^3 SGR-harboring cell lines (SGR-Feo-JFH-1 or S52/SG-neo) were cultured with supplemented DMEM in a 96-multi-well plate and incubated at 37 °C in a humidified 5% CO2 incubator. On the subsequent day, peptide-containing medium was added at the following final concentrations: 2.5, 5, 10 and 20 μM. The tested peptides were Hecate and its derivatives, which included the following: lysine addition (Lysine-Hecate/Lys-Hecate); one or two molecules of Gallic Acid (GA-Hecate and GA2-Hecate); one acetyl radical (Acetyl-Hecate) or Glutamic acid (Glu-Hecate). After 48 h of incubation, peptide-media was removed, and MTT at a final concentration of 1 mg/mL was added to the wells, incubated for 30 minutes and subsequently replaced by 100 μL of DMSO. Absorbance was measured at 562 nm, using a plate spectrophotometer (FLUOstar Omega/BMG LABTECH, Offenburg, BW, DE). Cell viability was calculated considering water-treated cells (peptides diluent) as a negative control. All experiments were performed in triplicate and in three independent replicates. Further assays were performed considering at least 80% viability of the treated cells.\n(§2) GA-Hecate toxicity and viral inhibition profile in 24, 48 and 72h post-treatment in […]\n(§3) GA-Hecate toxicity and viral inhibition capacity were evaluated at 24, 48 and 72h post-treatment. Tested concentrations were 1.25; 2.5; 5; 10; 20; and 40 µM. At the end of every incubation, cells were stained using MTT as previously described. Similarly, at every time point, treated cells were lysed using PLB and summited to Luminescence analysis as previously described. […]"}, "[2]": {"tested_on": "HCV subgenomic replicon SGR-Feo-JFH-1 (genotype 2a)", "test": "HCV subgenomic replicon replication, luciferase assay (genotype 2a)", "assay_type": "cell-based, hepatitis C virus", "conditions": "for SI (selectivity index), ratio CC50/EC50 / inhibition of HCV replication at the maximum safe concentration: 48 h, genotype 2a replicon; for EC50: Huh-7.5 harbouring SGR-Feo-JFH-1 genotype 2a, 48 h treatment, 2.5-20 μM, luciferase, triplicate in three independent assays, read-out: EC50 (50% effective concentration for HCV); for inhibition of HCV replication at the maximum safe concentration: at each peptide's maximum safe concentration (Hecate 10 μM; Lys-, Glu-, Acetyl-Hecate 5 μM)", "description": "as §1\nCell lines harboring subgenomic or genomic replicons were seeded at 5 × 10^3 cells /well on 96-well plates and the compounds were added 24 h post-seeding, in a concentration range between 2.5–20 μM. After 48 h of treatment, the cells were disrupted with 30 μL of passive lysis buffer (Promega, Madison, WI, USA), and luciferase substrate (Promega, Madison, WI, USA) was automatically added to each sample. Luciferase activity was measured using a luminometer (FLUOstar Omega/BMG LABTECH, Offenburg, BW, DE). The same assays were performed in Huh-7.5 cell lines harboring SGR-JFH1 Feo, S52/SG-neo or FL-J6/JFH-50C19Rluc2AUbi. Cyclosporine A (Sigma-Aldrich) at 1 μM was used as positive control of viral replication inhibition and dH2O as negative control.\nas §2, §3"}}, "note": "Where no end group is shown, it is not given here.", "data": [{"compound": "H-EFALALKALKKALKKLKKALKKAL-NH2 [Glu-Hecate]", "values": [{"measurement": "CC50 (50% cytotoxic concentration)", "setting": "[1]", "result": 9.12, "unit": "µM"}, {"measurement": "maximum non-toxic (safe) concentration in hepatocytes", "setting": "[1]", "result": 5, "unit": "µM"}, {"measurement": "SI (selectivity index), ratio CC50/EC50", "setting": "[2]", "result": 2.76}, {"measurement": "EC50", "setting": "[2]", "result": 3.3, "unit": "µM"}, {"measurement": "inhibition of HCV replication at the maximum safe concentration", "setting": "[2]", "result": "approximately 65%"}]}, {"compound": "CC(C)C[C@H](NC(=O)[C@H](C)NC(=O)[C@H](CCCCN)NC(=O)[C@H](CCCCN)NC(=O)[C@H](CC(C)C)NC(=O)[C@H](C)NC(=O)[C@H](CCCCN)NC(=O)[C@H](CCCCN)NC(=O)[C@H](CC(C)C)NC(=O)[C@H](CCCCN)NC(=O)[C@H](CCCCN)NC(=O)[C@H](CC(C)C)NC(=O)[C@H](C)NC(=O)[C@H](CCCCN)NC(=O)[C@H](CCCCN)NC(=O)[C@H](CC(C)C)NC(=O)[C@H](C)NC(=O)[C@H](CCCCN)NC(=O)[C@H](CC(C)C)NC(=O)[C@H](C)NC(=O)[C@H](CC(C)C)NC(=O)[C@H](C)NC(=O)[C@H](Cc1ccccc1)NC(=O)[C@@H](N)CCCCN)C(N)=O", "note": "[Lys-Hecate]", "values": [{"measurement": "CC50 (50% cytotoxic concentration)", "setting": "[1]", "result": 7.97, "unit": "µM"}, {"measurement": "maximum non-toxic (safe) concentration in hepatocytes", "setting": "[1]", "result": 5, "unit": "µM"}, {"measurement": "SI (selectivity index), ratio CC50/EC50", "setting": "[2]", "result": 3.06}, {"measurement": "EC50", "setting": "[2]", "result": 2.6, "unit": "µM"}]}, {"compound": "Ac-FALALKALKKALKKLKKALKKAL-NH2 [Acetyl-Hecate]", "values": [{"measurement": "CC50 (50% cytotoxic concentration)", "setting": "[1]", "result": 9.43, "unit": "µM"}, {"measurement": "maximum non-toxic (safe) concentration in hepatocytes", "setting": "[1]", "result": 5, "unit": "µM"}, {"measurement": "EC50", "setting": "[2]", "result": 3.79, "unit": "µM"}, {"measurement": "inhibition of HCV replication at the maximum safe concentration", "setting": "[2]", "result": "approximately 65%"}]}, {"compound": "FALALKALKKALKKLKKALKKAL-NH2 [Hecate]", "values": [{"measurement": "CC50 (50% cytotoxic concentration)", "setting": "[1]", "result": 12.17, "unit": "µM"}, {"measurement": "maximum non-toxic (safe) concentration in hepatocytes", "setting": "[1]", "result": 10, "unit": "µM"}, {"measurement": "SI (selectivity index), ratio CC50/EC50", "setting": "[2]", "result": 1.42}, {"measurement": "EC50", "setting": "[2]", "result": 8.57, "unit": "µM"}]}]}
